# Target: Beta-secretase 1 (Homo sapiens) (UniProt P56817)
# Test: Inhibition of recombinant BACE1 (unknown origin) using synthetic dodecapeptide with BACE1 cleavage sequence of Swedish type as substrate at 2 mM after 30 mins
# Sequence of Beta-secretase 1 (Homo sapiens) (P56817 whole entry): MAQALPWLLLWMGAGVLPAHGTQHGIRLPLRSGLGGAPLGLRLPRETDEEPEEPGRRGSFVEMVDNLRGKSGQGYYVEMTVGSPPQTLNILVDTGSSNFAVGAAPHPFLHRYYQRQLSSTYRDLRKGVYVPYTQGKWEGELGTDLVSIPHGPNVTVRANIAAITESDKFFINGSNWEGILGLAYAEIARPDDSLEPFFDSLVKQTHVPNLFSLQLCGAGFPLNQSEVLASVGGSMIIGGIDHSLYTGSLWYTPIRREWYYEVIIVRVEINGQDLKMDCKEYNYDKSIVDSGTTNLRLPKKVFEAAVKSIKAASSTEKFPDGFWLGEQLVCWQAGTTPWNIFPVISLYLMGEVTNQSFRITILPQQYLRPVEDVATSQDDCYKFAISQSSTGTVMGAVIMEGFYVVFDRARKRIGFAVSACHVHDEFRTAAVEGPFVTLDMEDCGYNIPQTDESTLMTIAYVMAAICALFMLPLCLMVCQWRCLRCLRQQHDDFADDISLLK
row,Structure (SMILES),inhibition
1,COCOc1ccc(C(=O)Nc2ccc(CCCCC(O)c3cccc(OC)c3)cn2)cc1 (stereo unspecified),19%
2,COc1cccc(C(O)CCCCc2cccc(NC(C)=O)n2)c1 (stereo unspecified),56%
3,COc1cccc(C(O)CCc2cccnc2NC(C)=O)c1 (stereo unspecified),18%

# Results, then the compound that gave them:
row,inhibition,Structure (SMILES)
1,20%,COc1cccc(CCCCc2ccc(NC(C)=O)nc2)c1
2,21%,COc1cccc(CCCCc2cccc(NC(C)=O)n2)c1
3,20%,COc1cccc(C(O)CCCCc2ccc(NC(C)=O)nc2)c1 (stereo unspecified)

# — ChEMBL document CHEMBL3632491, “Synthesis and evaluation of aminopyridine derivatives as potential BACE1 inhibitors” (Bioorg Med Chem Lett, 2015)
